# From patent US12685757B2, “Method to increase systemic blood pressure in shock” (GEORGETOWN UNIVERSITY, priority 2019, dated 2026)
# “Also recorded” adds a separate entry of the source.
# Tests used:
# [1] = test system: isolated pressurized (60 mmHg) arteries; assay: Ex vivo contractility of isolated pressurized arteries; design: species or system mice; conditions: for response to prolonged application: arterioles
# Experimental: Ex vivo artery physiology: Skeletal muscle arteries (radial artery branch, artery #18, subscapular branch artery #14) and cerebellar branch, cerebral artery #3) were isolated and cannulated with glass micropipettes secured with monofilament threads. The pipette and bathing solution contained modified PSS (125 mM NaCl, 3 mM KCl, 26 mM NaHCO3, 1.25 mM NaH2PO4, 1 mM MgCl2, 4 mM D-glucose, and 2 mM CaCl2)) aerated with a gas mixture consisting of 95% 02, 5% CO2, to maintain pH (pH 7.4). Arterioles were pressure clamped (60 mmHg) using a custom-built apparatus in a heated imaging chamber (Tokai Hit), viewed with a 10× objective using a Nikon TE2000 microscope and recorded by a Retiga 3000 digital camera (QImaging). The arteriole diameter was measured at several locations along each arteriole using the NIH-ImageJ software's edge-detection plug-in (Diameter). The software automatically detects the distance between edges (by resampling a total of five times from adjacent pixels) yielding a continuous read-out SD of a vessel's diameter.
# DRG = assay: nLacZ staining of DRG after systemic TRPV1 agonist (neurotoxicity); format: in vivo; conditions: 50 μg/kg; TRPV1-nLacZ reporter mice; preliminary data
# From the text: A potential adverse effect of TRPV1 agonists is toxicity to sensory nerves. Indeed, in vivo administration of the ultrapotent agonist, resiniferatoxin (RTX), or even high doses of capsaicin can lead to destruction of TRPV1+ neurons (Szallasi S and Blumberg P M, “Vanilloid receptor loss in rat sensory ganglia associated with long term desensitization to resiniferatoxin” Neurosci Lett 140 (1)(1992)51-54. In one embodiment, TRPV1 agonists that poorly penetrate the CNS, such as DkTx or BrP-LPA, are employed. In vivo toxicity is tested by the administration of TRPV1 agonists in TRPV1^PLAP-nLacZ mice based on the highest cumulative doses utilized in EXAMPLE 5. One week later, DRG are isolated and analyzed for nLacZ staining. […] This analysis therefore determines TRPV1 agonist neurotoxicity and forms an assay for toxicity limiting strategies. In one embodiment, BrP-LPA is employed as a more hydrophilic molecule than capsaicin with less neurotoxicity. In another embodiment, DkTx, with limited CNS penetration, is employed to avoid neurotoxicity.
# X-gal staining. TRPV1^PLAP-nlacZ mice were anesthetized with isoflurane and perfused through the heart using PBS (0.1M, pH 7.3) followed by ice-cold 2-4% buffered paraformaldehyde. […]
# anesthetized mice = assay: Systemic blood pressure recording in anesthetized mice; format: in vivo
# Experimental: (§1) Systemic blood pressure recording: The experiments were performed in anesthetized mice (urethane 1.2-1.5 g/kg/IP) and rats (thiopental 50 mg/kg/IP; supplement if needed was 5 mg/kg/IV). Subsequent to anesthesia, mice or rats underwent cannulation of the carotid artery and jugular vein as follows:
# Surgical preparation mouse: After the depth of anesthesia was confirmed by lack of pedal and corneal reflexes, mice were intubated via the trachea after a tracheotomy to maintain an open airway and to institute artificial respiration when necessary. Next, the left carotid artery and the right jugular vein were cannulated with a Millar catheter (1F SPR-1000) and a polyethylene tubing (PE-10), respectively, for monitoring blood pressure and for systemic infusion of drugs. To monitor heart rate, a three-point needle electrode-assembly representing Lead II of the electrocardiogram (ECG) was attached subcutaneously to the right and left forelimbs along with a reference electrode to the left hindlimb. Both the Millar catheter and the ECG assembly were coupled to a PowerLab data acquisition system (ADInstruments, Inc.). Prior to vessel cannulation, the adjacent left cervical vagus was carefully isolated from the left carotid artery. Body temperature was monitored by a digital rectal thermometer and maintained at 37±1° C. with an infrared heat lamp.
# anesthetized rat = assay: Systemic blood pressure recording in anesthetized rats; format: in vivo
# Experimental: as §1
# Surgical preparation rat: Similar to the mouse, following intubation of the trachea, the left carotid artery, and jugular vein were cannulated with a polyethylene tubing (PE50) to monitor blood pressure and infuse drugs, respectively. Blood pressure was continuously recorded via a pressure transducer connected to the Haemosys hemodynamic system (Experimetria Ltd., Budapest, Hungary), as was the ECG. The ECG was recorded from the extremities of the animal by means of hypodermic metal needles inserted subcutaneously in accordance with the Einthoven method (I, II, III leads). As in the mouse, heart rate was determined from lead II of the ECG recordings and body core temperature was maintained at 37±0.5° C. with a temperature controlled infrared heating lamp. Drug administration: Intravenous infusion of drugs was initiated only when a stable baseline of blood pressure and heart rate was present. This was also the case when drugs were re-administered.
# [2] = test system: arteriolar smooth muscle (ASM) cells; assay: Ca2+ imaging in isolated arterioles and arteriolar smooth muscle cells; format: cell-based, mice
# Experimental: Arterial smooth muscle cell isolation. Radial artery branch (artery #18) and cerebellar branch (cerebral artery #3) were washed in Mg^2+-based physiological saline solution (Mg-PSS) containing 5 mM KCl, 140 mM NaCl, 2 mM MgCl2, 10 mM Hepes, and 10 mM glucose, (pH 7.3). Arteries were initially digested in papain (0.6 mg/ml) (Worthington) and dithioerythritol (1 mg/ml) in Mg-PSS at 37° C. for 15 min, followed by a 15-min incubation at 37° C. in type II collagenase (1.0 mg/ml) (Worthington) in Mg-PSS. The digested arteries were washed three times in ice-cold Mg-PSS solution and incubated on ice for 30 min. After this incubation period, vessels were triturated to liberate smooth muscle cells and stored in ice-cold Mg-PSS before use. Smooth muscle cells were studied within 6 hours of isolation.
# Ca^2+ imaging. Arterioles and ASM cells were loaded with 1 μM Fluo-4-AM (Invitrogen, Thermo Fisher Scientific) in a standard buffer containing in mM: 140 NaCl, 4 KCl, 1 MgCl2, 1.2 CaCl2), 10 HEPES, and 5 glucose (pH 7.3). For studies of hypoosmotic stretch, NaCl was reduced to 70 mM, and mannitol (70-150 mM) was added to adjust osmolarity to between 220 and 310 mOsm. Final osmolarity was confirmed with an osmometer (Model 3320, Advanced Instruments). Temperature was maintained either at room temperature (23° C.) or at 32-35° C. using a heated microscope stage (Tokai Hit). Bath temperature was verified by a thermistor probe (Warner Instruments). Cells were imaged with a 20× objective using a Nikon TE2000 microscope with an excitation filter of 480±15 nm and an emission filter of 535±25 nm. The images were captured by a Retiga 3000 digital camera (QImaging) and analysis was performed offline using ImageJ. Individual smooth muscle cells were counted for sensitivity to capsaicin and KCl. Sensitivity was defined as a greater than 20% change from baseline (typically responses were greater than 100%). Solutions were applied via a pencil (250-μm diameter) that was attached to a valve-controlled gravity-fed perfusion system.
# radial branch arteries = assay: Intravital imaging of radial branch arteries; format: in vivo, mice; conditions: local administration
# Experimental: Intravital imaging: Intravital imaging was performed in radial artery branches (~20 and 60 μm in diameter, artery #18 in FIG. 2F). Animals were anesthetized with urethane (1.2 g/kg/IP). The forelimb was shaved and an incision was made. The skin and underlying muscle tissue were reflected to expose the brachial-radial artery junction. Both in WT and TRPV1-null mice, the arteries were visualized with a Zeiss stereomicroscope and illuminated with a low power blue light (using a standard GFP filter cube) exploiting the differential auto-fluorescence between tissue and blood. In TRPV1-Cre:ChR2/tdTomato mice, arteries were visualized with low power visible irradiation and stimulated with blue light. The exposed arteries were locally perfused (using a 250 μm pencil connected to a valve-controlled gravity-fed perfusion system) with preheated PSS solutions containing in mM: 140 NaCl, 4 KCl, 1 MgCl2, 1.2 CaCl2), 10 HEPES, and 5 glucose (pH 7.3). The surface tissue temperature (34-35° C.) was measured via a thermistor (Warner Instruments) that was positioned next to the artery. Arteries were challenged with a PSS containing 0 Ca^2+/1 mM EGTA to measure the passive diameter. The arteriole diameter was measured using ImageJ as described above for the ex vivo vessels.
# [3] = cited from earlier work
# [4] = bolus IV, up to 4 μg/kg; cited from earlier work
# [5] = test system: vascular smooth muscle cell; assay: Voltage-clamp currents in vascular smooth muscle cell; format: cell-based
Molecule,response to prolonged application [1],nLacZ staining in DRG (DRG),"effect on systemic blood pressure in mice (anesthetized mice; IV infusion, wild type but not TRPV1-null mice)",blood pressure during infusion (anesthetized mice; infusion),duration of persistent increase in BP (anesthetized mice; preliminary data) [min],tachyphylaxis of pressor effect (anesthetized mice; repeated injections),heart rate at peak response (anesthetized rat; at peak pressor/depressor response),"heart rate effect of bolus injections (anesthetized rat; bolus injection, prevented by atropine or slower infusion)","rise in systolic and diastolic blood pressure (anesthetized rat; intravenous, highest dose tested (4-32 μg/kg)) [mm Hg]",Ca2+ responses in arterioles from TRPV1-null mice ([2]; TRPV1-null mice),Ca2+ signaling in ASM cells ([2]; subset of ASM cells from wild-type mice),"constriction of arteries from TRPV1-null mice ([1]; 1 μM, TRPV1-null mice)","Emax at 1 µM ([1]; Mus musculus, 1 μM, wild-type and TRPV1-Cre:tdTomato mice, read-out: constriction of brain arterioles, % of the maximal response to 50 mM KCl) [%]",effect on coronary arterioles ([1]; effect inversely proportional to vessel diameter),constriction of radial branch arteries in vivo (radial branch arteries) [%],effect on nearby veins or arteries in TRPV1-null mice (radial branch arteries),in vivo half-life [3] [min],sensations reported by subjects [4],currents in voltage-clamped cell [5]
resiniferatoxin,non-desensitizing response,nearly completely abolishes nLacZ staining,,,,,,,,,,,,,,,,,
"COc1cc(CNC(=O)CCCC/C=C/C(C)C)ccc1O [Capsaicin, 8-methyl-N-vanillyl-6-nonenamide]",slowly declining,,pressor; also recorded: markedly increased systemic blood pressure,sustained increase in BP,15 to 30,does not exhibit tachyphylaxis,without any significant changes in heart rate,transient bradycardic effect,~60,no responses,increased Ca^2+ signaling,did not constrict,~75,constricted coronary arterioles,> 90,without affecting,3 to 5,mild burning sensation and a feeling of warmth,Non-desensitizing currents
